The conditions of data set [1]: cited from earlier work.
The subject of data set [2] is CYP3A4. The following applies: human, in vivo, po, cited from earlier work.
The conditions of data set [3]: cited from earlier work. The source holds these as a separate data set.
The test system of a further data set is rCYP3A5. The following applies: corrected for fumic & ISEF, cited from earlier work; for Km: read-out: rCYP3A5 Km.
For data set [4] the following is noted: cited from earlier work. This is another data set of the same source.
The subject of data set [5] is CYP3A4. The following applies: read-out: CYP3A4 Ki; ref (Nielsen et al., 1999); (Ngui et al., 2000); (Guengerich et al., 1986); cited from earlier work.
A further data set relates to CYP2D6. The arrangement: method as in ref (Ching et al., 1995); (Broly et al., 1989); (Lalovic et al., 2004). The following applies: ref (Ching et al., 1995); (Broly et al., 1989); (Lalovic et al., 2004); cited from earlier work.
Another data set relates to rCYP2C19. The following applies: M3, corrected for fumic & ISEF, ref (Von Moltke et al., 1999), cited from earlier work.
The subject of a further data set is rCYP2C9. The following applies: corrected for fumic & ISEF, ref (Von Moltke et al., 1999), cited from earlier work; for Km: read-out: rCYP2C9 Km.
Data set [6] has as its system CYP3A4. The following applies: human, in vivo, cited from earlier work.
The test system of another data set is rCYP2J2. The following applies: corrected for fumic & ISEF, ref (Von Moltke et al., 1999), cited from earlier work; for Km: read-out: rCYP2J2 Km.
The next data set concerns rCYP1A2. The following applies: corrected for fumic & ISEF, ref (Von Moltke et al., 1999), cited from earlier work; for Km: read-out: rCYP1A2 Km.
A further data set has as its system rCYP2D6. The following applies: corrected for fumic & ISEF, ref (Von Moltke et al., 1999), cited from earlier work; for Km: read-out: rCYP2D6 Km.
The conditions of data set [7]: ref (Burman et al., 2001); cited from earlier work.
Data set [8] relates to CYP3A4. Briefly: Rifampicin-mediated clinical drug-drug interaction studies with CYP3A4 probe substrates. The format is in vivo, human. The following applies: for reduction in MDZ AUC, median: rifampicin, across clinical studies of Table 3; for fold induction: human, plasma, read-out: Geometric mean fold induction.
A further data set concerns rUGT1A4. The following applies: corrected for fumic & ISEF, ref Meta-analysis (Emoto et al., 2003), (Galetin et al., 2004) and 7 others incl. (Hyland et al., 2009), cited from earlier work.
The test system of data set [9] is CYP3A. The following applies: mean of four human hepatocyte donors; three-parameter fit; Indmax = Emax + 1.
The test system of data set [10] is CYP3A. Briefly: in vitro. The following applies: human, cryopreserved human hepatocytes, probe testosterone (6β-hydroxytestosterone formation).
Data set [11] has as its system CYP3A. Briefly: in vitro. The following applies: human, cryopreserved human hepatocytes.
Data set [12] has as its system CYP3A. The following applies: mean of four human hepatocyte donors; three-parameter fit; Indmax = Emax + 1. This is another data set of the same source.
Setting [13] is: 1-hydroxylation, ref Meta-analysis (Emoto et al., 2003), (Galetin et al., 2004) and 7 others.
[14] abbreviates: 4-hydroxylation, ref Meta-analysis (Emoto et al., 2003), (Galetin et al., 2004) and 7 others.

Values joined by “and” are separate entries in the source; they are usually repeats but may differ in a detail not shown here. Equal entries are not always repeated. Where two headings read alike, the source gives them in different places.

`NC(=O)N1c2ccccc2C2OC2c2ccccc21` (stereo not shown) [Carbamazepine-10,11-epoxide]: in data set [1] (in vivo), the CLR is recorded as 0.14 L/h and the CLpo is reported as 6.07 L/h.
On to `Cc1nnc2n1-c1ccc(Cl)cc1C(c1ccccc1Cl)=NC2` [Triazolam, triazolam], for which the AUC in the data set with CYP3A4 [2] (0.5 mg) is recorded as 14.8 (21.4) ng/mL.h. In the data set with CYP3A4 [2], the “1/AUC Ratio” value was 20.0 and the AUCi is recorded as 0.74 (59.8) ng/mL.h.
Broadly, the Km is the concentration of substrate that gives half-maximal velocity. For the compound `Cc1nnc2n1-c1ccc(Cl)cc1C(c1ccccc1)=NC2` [Alprazolam, alprazolam], the CLR in data set [1] (in vivo) is on record as 0.678 L/h. Also, in [3] (in vivo), the “Vss (Minimal PBPK)” value is on record as 0.99 L/kg. Also, the Km is 211 µM with rCYP3A5 (4-hydroxylation, ref Meta-analysis (Hirota et al., 2001), (Galetin et al., 2004) (Williams et al., 2002)) and 205 µM in the data set with rCYP3A5 (second pathway, printed 'oxylation', ref Meta-analysis (Hirota et al., 2001), (Galetin et al., 2004) (Williams et al., 2002)). Also, the AUC in the data set with CYP3A4 [2] (1 mg) was 242 (31.3) ng/mL.h. In addition, the AUCi in the data set on CYP3A4 [2] is 28.4 (23.9) ng/mL.h. Besides, in [4] (ref (Smith et al., 1984), (Lin et al., 1988), (Kirkwood et al., 1991), (Amchin et al., 1998), (Greenblatt et al., 1983)), the ka is 3.56 h⁻¹.
What is called Ki is a dissociation constant, usually derived from enzyme kinetics or from competition with a known ligand. As to `C=C[C@H]1C[N@@]2CC[C@H]1C[C@@H]2[C@@H](O)c1ccnc2ccc(OC)cc12` [Quinidine, quinidine], the Ki in the data set with CYP3A4 [5] is 40 µM; in the data set with CYP2D6, […].
As for `Cc1ccc(-c2nc3ccc(C)cn3c2CC(=O)N(C)C)cc1` [Zolpidem, zolpidem], in data set [1] (in vivo), the CLR is on record as 0.18 L/h. Moreover, the fe in [1] (in vivo) is 0.01. Also, the “rCYP2C19 Vmax” value with rCYP2C19 is 0.8 µL/min/pmol. Besides, the Km in the data set on rCYP2C19 (read-out: rCYP2C19 Km) was 133 µM; with rCYP2C9 (M3) it was 103 µM; in the data set on rCYP2C9 (M4) it was 81 µM; in the data set with rCYP2J2 (M3), 340 µM; in the data set with rCYP2J2 (M4) it was 399 µM; with rCYP1A2 (M3) it was 38 µM. Besides, the Km with rCYP1A2 (M4) was 40 µM; in the data set with rCYP2D6 (M3), 190 µM; in the data set with rCYP2D6 (M4), 214 µM. Further, the “rCYP2C9 Vmax” value in the data set on rCYP2C9 (M3) was 17.42 µL/min/pmol; in the data set on rCYP2C9 (M4), 0.888 µL/min/pmol. Besides, the figures for the AUC in the data set with CYP3A4 [6] (5 mg) and with CYP3A4 [2] (20 mg) were 0.235 (70.4) mg/L.h and 1110 (36.9) ng/mL.h, respectively. Besides, the “1/AUC Ratio” value was 2.31 in the data set with CYP3A4 [6] and 3.34 in the data set with CYP3A4 [2]. Also, the AUCi with CYP3A4 [6] is reported as 0.102 (58.1) mg/L.h; in the data set on CYP3A4 [2], 332 (56.4) ng/mL.h. The “rCYP2J2 Vmax” value in the data set with rCYP2J2 (M4) is reported as 6.86 µL/min/pmol. Also, the “rCYP1A2 Vmax” value with rCYP1A2 (M3) is listed as 7.99 µL/min/pmol; in the data set with rCYP1A2 (M4), 0.777 µL/min/pmol. Further, the “rCYP2D6 Vmax” value in the data set on rCYP2D6 (M3) is 1.44 µL/min/pmol; in the data set with rCYP2D6 (M4), 4.68 µL/min/pmol. Besides, the “Vss (Minimal PBPK)” value in [3] (in vivo) was 0.68 L/kg. For the same compound, the ka in data set [4] (ref (Olubodun et al., 2003), (Patat et al., 1994)) was 2.25 h⁻¹.
Turning to `CO[C@H]1/C=C/O[C@@]2(C)Oc3c(C)c(O)c4c(O)c(c(/C=N/N5CCN(C)CC5)c(O)c4c3C2=O)NC(=O)/C(C)=C\C=C\[C@H](C)[C@H](O)[C@@H](C)[C@@H](O)[C@@H](C)[C@H](OC(C)=O)[C@@H]1C` [Rifampicin, rifampicin], the CLiv in data set [1] (in vivo) is recorded as 7 L/h. In data set [1] (ref Polk 2001), the CLR is given as 1.2 L/h. In addition, the fu in data set [7] is reported as 0.15. Moreover, the “Vss (Minimal PBPK)” value in [3] (ref (Loos et al., 1985)) is 0.33 L/kg.
On to `Cc1ncc2n1-c1ccc(Cl)cc1C(c1ccccc1F)=NC2` [Midazolam, midazolam], for which the “reduction in MDZ AUC, median” value in the data set with CYP3A4 [8] (MDZ administered orally, listed as MDZ) is 17.5 fold and 18.1 fold; in the data set with CYP3A4 [8] (MDZ i.v. administration), 2.0 fold. Moreover, the fold induction turned out to be 1.99 in the data set on CYP3A4 [8] (iv) and 18.1 in the data set with CYP3A4 [8] (po). Besides, in the data set on CYP3A4 [8] (meta-analysis of studies where midazolam was administered orally with rifampicin), the “1/AUC ratio, CI of the observations” value is recorded as 5.4-60.4. Moreover, the CLR in data set [1] (in vivo) is listed as 0.085 L/h. Besides, the Fe in [1] (in vivo) is on record as 0.0033. Also, the “rUGT1A4 Vmax” value in the data set with rUGT1A4 is 445 µL/min/mg. Moreover, the figures for the Km in the data set with rUGT1A4 (read-out: rUGT1A4 Km), with rCYP3A5 (setting [13]) and in the data set with rCYP3A5 (setting [14]) were 40.3 µM, 4.16 µM and 34.8 µM, respectively. Moreover, the “Vss (Minimal PBPK)” value in [3] (in vivo) is listed as 1 L/kg. Moreover, the results for the “rCYP3A5 Vmax” value in the data set with rCYP3A5 (setting [13]) and in the data set on rCYP3A5 (setting [14]) were 19.7 µL/min/pmol and 4.03 µL/min/pmol, respectively. In the data set on CYP3A4 [2] (0.075 mg), the AUC ratio was 2.3 fold. Further, the ka in [4] (ref (Allonen et al., 1981)) is 3 h⁻¹.
For `C=C[C@@]1(O)CN2CC[C@H]1C[C@@H]2[C@@H](O)c1ccnc2ccc(OC)cc12` [3-OH Quinidine], in [1] (in vivo), the CLR is reported as 16.7 L/h and the CLpo is 52.6 L/h.
As a reminder, the EC50 is the concentration at which the effect is half-maximal. For `O=C1Nc2ccc(Cl)cc2[C@@](C#CC2CC2)(C(F)(F)F)O1` [Efavirenz], the “mRNA Indmax” value in the data set on CYP3A [9] was found to be […]. Further, the figures for the EC50 in the data set with CYP3A [10] and with CYP3A [11] were […] and […], respectively. Further, in the data set with CYP3A [12], the “Activity Indmax” value amounted to […].

The values are drawn from article PMC4885489, “Prediction of Drug-Drug Interactions Arising from CYP3A induction Using a Physiologically Based Dynamic Model” (Drug Metabolism and Disposition, 2016).
